Values after ≈ are worked out from the molar mass of the structure shown.
Legend:
S. epi oc2603 = assay: MIC, microdilution broth method (NCCLS); format: cell-based; design: unit not given here; conditions: cation supplemented Mueller Hinton broth, 35° C., 16-20 hours
Experimental: (§1) The in vitro antimicrobial spectrum of the compounds of the present invention were determined by the microdilution broth method following the test method from the National Committee for […] (NCCLS ). The method is described in the NCCLS Document M7-A2, Vol. 10, No.8 "Methods for Dilution Antimicrobial Susceptibility Test for Bacteria that Grow Aerobically--Second Edition".
(§2) In this method two fold serial dilutions of drug in cation supplemented Mueller Hinton broth are added to wells in microdilution trays. The test organisms are prepared by adjusting the turbidity of actively growing broth cultures so that the final concentration of test organism after it is added to the wells is approximately 5×10^4 colony forming units per well delivered by the Steers replicating device.
(§3) Following inoculation of the microdilution trays, the trays are incubated at 35° C. for 16-20 hours and then read. […] The amount of growth in the wells containing the test compound is compared with the amount of growth in the growth-control wells used in each tray.

C. albicans 10231 = assay: MIC, microdilution broth method (NCCLS); format: cell-based; conditions: cation supplemented Mueller Hinton broth, 35° C., 16-20 hours; unit assumed
Experimental: as §1, §2, §3

Ps. aerug. oc27853 = assay: MIC, microdilution broth method (NCCLS); format: cell-based; conditions: cation supplemented Mueller Hinton broth, 35° C., 16-20 hours; unit assumed
Experimental: as §1, §2, §3

E. faecalis oc3041 = assay: MIC, microdilution broth method (NCCLS); format: cell-based; conditions: cation supplemented Mueller Hinton broth, 35° C., 16-20 hours; unit assumed
Experimental: as §1, §2, §3

E. coli oc2605 = assay: MIC, microdilution broth method (NCCLS); format: cell-based; conditions: cation supplemented Mueller Hinton broth, 35° C., 16-20 hours; unit assumed
Experimental: as §1, §2, §3

MRSA oc2089 = assay: MIC, microdilution broth method (NCCLS); format: cell-based; conditions: cation supplemented Mueller Hinton broth, 35° C., 16-20 hours; unit assumed
Experimental: as §1, §2, §3

C. tropicalis = assay: MIC, microdilution broth method (NCCLS); format: cell-based; conditions: cation supplemented Mueller Hinton broth, 35° C., 16-20 hours; unit assumed
Experimental: as §1, §2, §3

MRSA oc667 = assay: MIC, microdilution broth method (NCCLS); format: cell-based; conditions: cation supplemented Mueller Hinton broth, 35° C., 16-20 hours; unit assumed
Experimental: as §1, §2, §3

E. faecalis ACTCC 29212 = assay: MIC, microdilution broth method (NCCLS); format: cell-based; conditions: cation supplemented Mueller Hinton broth, 35° C., 16-20 hours; unit assumed
Experimental: as §1, §2, §3

S. aureus ATCC 29213 = assay: MIC, microdilution broth method (NCCLS); format: cell-based; conditions: cation supplemented Mueller Hinton broth, 35° C., 16-20 hours; unit assumed
Experimental: as §1, §2, §3

A. niger 10578 = assay: MIC, microdilution broth method (NCCLS); format: cell-based; conditions: cation supplemented Mueller Hinton broth, 35° C., 16-20 hours; unit assumed
Experimental: as §1, §2, §3

K. pneum. oc1943 = assay: MIC, microdilution broth method (NCCLS); format: cell-based; conditions: cation supplemented Mueller Hinton broth, 35° C., 16-20 hours; unit assumed
Experimental: as §1, §2, §3

E. coli oc2530 = assay: MIC, microdilution broth method (NCCLS); format: cell-based; conditions: cation supplemented Mueller Hinton broth, 35° C., 16-20 hours; unit assumed
Experimental: as §1, §2, §3

Ps. aerug. oc161 = assay: MIC, microdilution broth method (NCCLS); format: cell-based; conditions: cation supplemented Mueller Hinton broth, 35° C., 16-20 hours; unit assumed
Experimental: as §1, §2, §3

E. faecium oc2993 = assay: MIC, microdilution broth method (NCCLS); format: cell-based; conditions: cation supplemented Mueller Hinton broth, 35° C., 16-20 hours; unit assumed
Experimental: as §1, §2, §3

Kinase A and SpoOF = biological target: T1, Kinase A and SpoOF (Bacillus subtilis, UniProt P16497); assay: Autophosphorylation of Kinase A and Transphosphorylation of SPoOF Assay; format: biochemical; conditions: inhibition of Kinase A autophosphorylation / SpoOF transphosphorylation, [32P]ATP, gel, phosphoimager
T1 sequence (P16497 1-606): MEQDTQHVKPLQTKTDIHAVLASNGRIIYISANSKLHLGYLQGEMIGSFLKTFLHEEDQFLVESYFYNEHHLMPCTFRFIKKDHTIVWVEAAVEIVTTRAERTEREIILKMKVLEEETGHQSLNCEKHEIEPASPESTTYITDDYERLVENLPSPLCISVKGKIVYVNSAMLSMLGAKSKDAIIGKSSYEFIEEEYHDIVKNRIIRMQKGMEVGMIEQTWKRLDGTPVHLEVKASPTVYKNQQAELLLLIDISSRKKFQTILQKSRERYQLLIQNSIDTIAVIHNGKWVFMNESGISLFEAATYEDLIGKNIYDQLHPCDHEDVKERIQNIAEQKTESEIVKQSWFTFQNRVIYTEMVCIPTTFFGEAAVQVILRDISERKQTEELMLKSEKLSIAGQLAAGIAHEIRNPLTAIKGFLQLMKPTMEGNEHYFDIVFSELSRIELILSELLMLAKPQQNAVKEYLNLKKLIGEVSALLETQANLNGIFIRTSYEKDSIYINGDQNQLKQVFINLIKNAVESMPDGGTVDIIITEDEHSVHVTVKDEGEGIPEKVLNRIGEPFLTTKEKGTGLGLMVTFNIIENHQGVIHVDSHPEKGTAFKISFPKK

SMILES	MIC S. epi oc2603 (S. epi oc2603)	MIC C. albicans 10231 (C. albicans 10231) [µg/mL]	MIC Ps. aerug. oc27853 (Ps. aerug. oc27853) [µg/mL]	MIC E. faecalis oc3041 (E. faecalis oc3041) [µg/mL]	MIC E. coli oc2605 (E. coli oc2605) [µg/mL]	MIC MRSA oc2089 (MRSA oc2089) [µg/mL]	MIC C. tropicalis (C. tropicalis) [µg/mL]	MIC MRSA oc667 (MRSA oc667) [µg/mL]	MIC E. faecalis ACTCC 29212 (E. faecalis ACTCC 29212) [µg/mL]	MIC S. aureus ATCC 29213 (S. aureus ATCC 29213) [µg/mL]	MIC A. niger 10578 (A. niger 10578) [µg/mL]	MIC K. pneum. oc1943 (K. pneum. oc1943) [µg/mL]	MIC E. coli oc2530 (E. coli oc2530) [µg/mL]	MIC Ps. aerug. oc161 (Ps. aerug. oc161) [µg/mL]	MIC E. faecium oc2993 (E. faecium oc2993) [µg/mL]	IC50 (Kinase A and SpoOF) [mM]	IC min (Kinase A and SpoOF) [mM]
CNCCCc1ccc(OCCC2(c3ccc(F)cc3)C=CCCC2)cc1 (stereo not shown) [Compound 24]	8	8 (≈ 21.8 µM)	> 128	8 (≈ 21.8 µM)	> 64	8 (≈ 21.8 µM)	8 (≈ 21.8 µM)	8 (≈ 21.8 µM)	8 (≈ 21.8 µM)	8 (≈ 21.8 µM)	4 (≈ 10.9 µM)	> 128	8 (≈ 21.8 µM)	> 128	8 (≈ 21.8 µM)	185	125
NCCc1ccc(OCCC2(Cc3ccccc3)C=CCCC2)cc1 (stereo not shown) [Compound 17]	8	≤ 16	> 64	8 (≈ 23.8 µM)	64 (≈ 191 µM)	8 (≈ 23.8 µM)	4 (≈ 11.9 µM)	8 (≈ 23.8 µM)	8 (≈ 23.8 µM)	8 (≈ 23.8 µM)	4 (≈ 11.9 µM)	> 64	8 (≈ 23.8 µM)	> 64	8 (≈ 23.8 µM)	38.3	15.6
NCCc1ccc(OCCC2(Cc3cc(Cl)cc(Cl)c3)C=CCCC2)cc1 (stereo not shown) [Compound 59]	8	8 (≈ 19.8 µM)	> 128	8 (≈ 19.8 µM)	≥ 64	8 (≈ 19.8 µM)	8 (≈ 19.8 µM)	8 (≈ 19.8 µM)	8 (≈ 19.8 µM)	8 (≈ 19.8 µM)	44 (≈ 109 µM)	> 128	16 (≈ 39.6 µM)	> 128	8 (≈ 19.8 µM)	46.1	
COc1ccc(CC2(CCOc3ccc(CCN)cc3)C=CCCC2)cc1 (stereo not shown) [Compound 41]	8	8 (≈ 21.9 µM)	> 128	8 (≈ 21.9 µM)	> 64	8 (≈ 21.9 µM)	4 (≈ 10.9 µM)	8 (≈ 21.9 µM)	8 (≈ 21.9 µM)	8 (≈ 21.9 µM)	2 (≈ 5.47 µM)	> 128	4 (≈ 10.9 µM)	> 128	8 (≈ 21.9 µM)	82.5	31.25
